Laboratory results as given in patent US20240010726A1, “LFA-1 SIGNALLING MEDIATOR FOR USE IN CANCER THERAPY” (Universität Basel, priority 2020, published 2024).

Tests used:
[1] = test system: human PHA T cell blasts; assay: Degranulation of PHA T cell blasts ± BIRT377; assay type: cell-based; settings: ±BIRT377 50 μM
[2] = test system: murine WT and LFA-1^−/− CTLs; assay: Degranulation marker CD107a on murine WT and LFA-1−/− CTLs; assay type: cell-based; settings: 8 h anti-CD3/anti-CD28 Ab; 1.2 mM Mg^2+ ± BIRT377 50 μM
[3] = test system: REP T cells; assay: FAK phosphorylation and CD107a degranulation of REP T cells co-incubated with T2 target cells; assay type: cell-based, human; settings: pulsed T2 target cells; 1.2 mM Mg^2+ ± BIRT377 50 μM
Procedure: FIG. 3: Magnesium regulates LFA-1 mediated T cell activation and cytotoxicity as well BiTE- and CAR T-cell functionality. (a) Glycolytic switch of murine WT and LFA-1^−/− CTLs upon injection of anti-CD3/28 Ab in medium containing 1.2 mM Mg^2+ and 0 mM Mg^2+, presented as quantification of summarized data with n=4 mice. (b) Calcium flux in WT and LFA-1^−/− Jurkat T cells stimulated with anti-CD3 Ab in 1.2 mM and 0 mM Mg^2+ medium, respectively. Cells were loaded with Fluo4, and signal intensity as recorded by plate reader, was normalized to unstimulated baseline values. […] Quantified results of n=3 mice with 3 technical replicates each. (d) Caspase-3 activity in EL4 target cells after co-culture with murine WT and LFA-1^−/− CTLs under the conditions as in (c) for 4 hours, in presence of 10 μg/ml PHA. The effector to target cell ratio was 3:1. Results are quantified of n=3 mice with 3 technical replicates each. (e) Representative CD11a (LFA-1) surface expression on human naïve and EM CD8 T cells, PHA T cell blasts and REP T cells, assessed by flow cytometry. Flow cytometry-based assessment of inactivate LFA-1 with bent conformation (f), extended conformation with β2 leg extension (g), LFA-1 with open head-piece (h), phosphorylation of FAK, expression of degranulation marker CD107a (j) on REP T cells after co-incubation with T2 target cells (pulsed with 10^−8 M 9c peptide) in same condition as in (c). The effector to target cell ratio was 1:1. Data is presented as quantified results of n=5 healthy donors (f, g, h), n=3 healthy donors with 2 technical replicates each or n=1 healthy donor with 4 technical replicates (j). […] Data is presented as quantified results of n=1 healthy donor with 4 technical replicates. […] Cytotoxicity is reported as total area under the curve of the fluorescence driven by incorporation of cytotoxic green reagent in dead target cells (green area per μm^2). […] (p) Abundance of IFNγ in cell culture supernatants corresponding to the conditions depicted in (o) at 24 hours was determined by ELISA (n=8, 3 independent experiments). […]

[4] = test system: T2 target cells; assay type: cell-based, human; settings: 45 min; E:T 1:1; 1.2 mM Mg^2+ ± BIRT377 50 μM
[5] = test system: human PHA T cell blasts; assay: Glycolytic switch of PHA T cell blasts ± BIRT377; assay type: cell-based; settings: ±BIRT377 50 μM
[6] = test system: Ramos target cells; assay: Co-culture assay with Blinatumomab, caspase-3 activity in Ramos target cells; assay type: cell-based, human; settings: PHA-blasts, 3.5 h co-culture; reported therapeutic range 230-620 pg ml^−1; varying Mg^2+
Procedure: FIG. 3: Magnesium regulates LFA-1 mediated T cell activation and cytotoxicity as well BiTE- and CAR T-cell functionality. (a) Glycolytic switch of murine WT and LFA-1^−/− CTLs upon injection of anti-CD3/28 Ab in medium containing 1.2 mM Mg^2+ and 0 mM Mg^2+, presented as quantification of summarized data with n=4 mice. (b) Calcium flux in WT and LFA-1^−/− Jurkat T cells stimulated with anti-CD3 Ab in 1.2 mM and 0 mM Mg^2+ medium, respectively. Cells were loaded with Fluo4, and signal intensity as recorded by plate reader, was normalized to unstimulated baseline values. […] Quantified results of n=3 mice with 3 technical replicates each. […] Results are quantified of n=3 mice with 3 technical replicates each. (e) Representative CD11a (LFA-1) surface expression on human naïve and EM CD8 T cells, PHA T cell blasts and REP T cells, assessed by flow cytometry. […] Data is presented as quantified results of n=5 healthy donors (f, g, h), n=3 healthy donors with 2 technical replicates each or n=1 healthy donor with 4 technical replicates (j). […] Data is presented as quantified results of n=1 healthy donor with 4 technical replicates. […] Cytotoxicity is reported as total area under the curve of the fluorescence driven by incorporation of cytotoxic green reagent in dead target cells (green area per μm^2). […]

Row | Substance | Degranulation of PHA T cell blasts [1] | CD107a degranulation of LFA-1^−/− CTLs [2] | CD107a degranulation of WT CTLs [2] | Degranulation (CD107a) of REP T cells [3] | Target cell killing by REP T cells (caspase-3 activity in T2 target cells) [4] | Glycolytic switch of PHA T cell blasts [5] | Blinatumomab-mediated cytotoxicity (caspase-3 activity in Ramos target cells) [6]
1 | BIRT377 [reference compound] | decreased degranulation | unaffected | reduced CTL degranulation | reduced degranulation | reduced | impaired glycolytic switching | 
2 | Blinatumomab: CD3/CD19 bispecific antibody engaging T cells to bind and eliminate CD19-positive cells |  |  |  |  |  |  | strongly dependent on availability of Mg^2+
